Data from paper PMC11085308, “Design, Synthesis and Biological Activity of Novel Methoxy- and Hydroxy-Substituted N-Benzimidazole-Derived Carboxamides” (Molecules, 2024).
≈ marks a conversion by molar mass, not a printed value. Where two headings read alike, the source gives them in different places.

Experiments:
[1] = test system: S. aureus ATCC 29213; test: Antibacterial activity in vitro, broth microdilution MIC; assay type: cell-based, Staphylococcus aureus; conditions: for MIC S. aureus ATCC 29213: broth microdilution, 16–24 h at 37 °C, unit inferred
Procedure: (§1) The in vitro antibacterial activity of the synthesized benzamides 7–12 and 31–37 was evaluated against a panel of eight different bacterial strains. The Gram-positive bacterial strains comprised S. aureus, S. pneumoniae and E. faecalis, and the panel of Gram-negative bacteria consisted of E. coli, K. pneumoniae, A. baumannii and P. aeruginosa.
(§2) The selected bacterial strains were Gram-negative Escherichia coli (ATCC 25922) and Gram-positive Staphylococcus aureus (ATCC 29213) and S. Pneumoniae (ATCC 49619). The Saccharomyces cerevisiae ATCC 7752 strain was tested as a eukaryotic model organism. Synthesized compounds were prepared as 10 mM DMSO solutions and tested in a final concentration range of 100–0.2 µM [39].
(§3) Broth microdilution testing was performed according to CLSI (Clinical Laboratory Standards Institute) guidelines. The MIC (minimal inhibitory concentration) value was defined as the last tested concentration of a compound at which there is no visible growth of bacteria. Inoculums for each microorganism were prepared using the direct colony suspension method, where broth solutions that achieved turbidity equivalent to 0.5 McFarland standards were additionally diluted 100× with cation-adjusted MH media (Becton Dickinson). All test plates were incubated for 16–24 h at 37 °C.

[2] = test system: H460 (lung carcinoma); test: Antiproliferative activity in vitro, MTT assay, 72 h; assay type: cell-based; conditions: Homo sapiens, NCI-H460, 72 h incubation
Procedure: (§4) The experiments were carried out on four human cell lines which are derived from three cancer types: H460 (lung carcinoma), HCT 116 (colorectal carcinoma), MCF-7 (human breast cancer) and the non-cancerous cell line HEK 293 (human embryonic kidney).
(§5) The results are compared with the known antiproliferative agents doxorubicin and etoposide. […] Therefore, it is not clear whether the observed antiproliferative activity is due to the biological activity of the compounds or to precipitation.
(§6) The experiments were performed on four human cell lines, including HCT 116 (colon carcinoma), H 460 (lung carcinoma), MCF-7 (breast carcinoma) and HEK 293 (human embryonic kidney cells), in line with previously published experimental procedures. Briefly, the cells were grown in DMEM medium with the addition of 10% fetal bovine serum (FBS), 2 mM of L-glutamine, 100 U/mL of penicillin and 100 µg/mL of streptomycin and cultured as monolayers at 37 °C in a humidified atmosphere with 5% CO2. Cells were seeded at 2 × 10^3 cells/well in standard 96-well microtiter plates and left to attach for 24 h. The next day, a test compound was added in five serial 10-fold dilutions. The rate of cell growth was evaluated after 72 h of incubation with MTT assays. […] Each test was performed in quadruplicate in at least two individual experiments.

[3] = test system: MCF-7 (human breast cancer); test: as above; assay type: cell-based; conditions: MCF7, 72 h incubation
Procedure: as §4, §5, §6

[4] = test system: HCT 116 (colorectal carcinoma); test: as above; assay type: cell-based; conditions: Homo sapiens, 72 h incubation, '-' with footnote a = did not show biological activity due to precipitation
Procedure: as §4, §5, §6

[5] = Ferric reducing/antioxidant power (FRAP assay); parameters: FRAP: unit not given here; conditions: for FRAP: Fe2+ equivalents, triplicate
Procedure: (§7) The synthesized benzazole acrylonitrile derivatives were screened for their antioxidative potency by using in vitro assays, namely DPPH and ABTS as free radical scavenging assays and FRAP as a ferric reducing/antioxidant power assay.
The antioxidant activity of a substance is directly related to its reducing power.
The FRAP method was carried out according to previously described procedures with some modifications to make it compatible with an assay on a 96-well microplate. All results were expressed as Fe^2+ equivalents (Fe^2+ µmol). Ferrous sulphate (FeSO4 × 7H2O) was used to develop a standard curve of 20–2000 µmol/l for the FRAP test.

[6] = test system: E. coli efflux del.; test: microbe, parasite or virus in culture; assay type: cell-based, Escherichia coli; conditions: broth microdilution, 16–24 h at 37 °C; unit inferred
Procedure: as §1, §2, §3

[7] = Solubility in water, seen as precipitation during incubation; assay type: physicochemical; conditions: precipitation observed during the incubation period
From the text: Therefore, it is not clear whether the observed antiproliferative activity is due to the biological activity of the compounds or to precipitation.

[8] = test system: A. baumannii ATCC 17978; test: Antibacterial activity in vitro, broth microdilution MIC; assay type: cell-based; conditions: 16–24 h at 37 °C, unit inferred
Procedure: as §1, §2, §3

[9] = test system: P. aeruginosa ATCC 27853; test: as above; assay type: cell-based; conditions: 16–24 h at 37 °C, unit inferred
Procedure: as §1, §2, §3

[10] = test system: E. faecalis ATCC 29212; test: as above; assay type: cell-based; conditions: for Selectivity of antibacterial activity, in words: against the Gram-positive strain E. faecalis; for MIC E. faecalis ATCC 29212: broth microdilution, 16–24 h at 37 °C, unit inferred
Procedure: as §1, §2, §3

[11] = test system: E. coli ATCC 25922; test: as above; assay type: cell-based, Escherichia coli; conditions: 16–24 h at 37 °C, unit inferred
Procedure: as §1, §2, §3

[12] = test system: HEK 293 (human embryonic kidney); test: Antiproliferative activity in vitro, MTT assay, 72 h, non-cancerous cell line; assay type: cell-based; conditions: HEK293, 72 h incubation, '-' with footnote a = did not show biological activity due to precipitation
Procedure: as §4, §5, §6

[13] = test system: H460, HCT 116, MCF-7, HEK 293; test: Antiproliferative activity in vitro, MTT assay, range over the tested cell lines; assay type: cell-based, human; conditions: read-out: IC50 range against the tested cell lines
Procedure: as §4, §5, §6

[14] = test system: HCT 116 cells; test: Antioxidative activity assay in cells (ROS level, DCFH-DA fluorescence); assay type: cell-based, human; conditions: HCT 116, TBHP 100 µM plus 10 µM compound, 1 h, compared to NAC
From the text: We further selected compounds 9, 10, 32 and 36, showing quite pronounced antioxidant capacity in the DPPH and FRAP assays, in order to test their pro- and antioxidant activity in tumor cells. In order to test the antioxidant activity of the selected compounds in tumor cells (Figure 2), we treated HCT 116 cells with tert-butyl hydroperoxide (TBHP), a substance commonly used for inducing oxidative stress in cells and tissues, alone or in combination with a known antioxidative agent, N-acetyl-L-cysteine (NAC), or the tested compounds. We measured the formation of oxidative stress byproducts using 2′,7′-dichlorodihydrofluorescein diacetate (DCFH-DA).
For the antioxidative activity assay, 2.5 × 10^4 cells were seeded into 96-well microtiter plates and left to attach for 24 h. The next day, cells were washed with PBS and incubated in FBS-free DMEM medium with 25 µM of DCFH-DA fluorescence dye. After 45 min of incubation, the medium was discarded, and the cells were washed with PBS.
After the washing step, the cells were incubated with 100 µM of tert-butyl hydroperoxide (TBHP) alone or in combination with antioxidative agents (50 mM of N-Acetyl-L-cysteine-NAC or 10 µM of the tested compounds) in PBS for 1 h at 37 °C. DCFH-DA fluorescence was recorded on a microplate fluorimeter reader (Tecan) with an excitation beam of 485 nm, while the emitted fluorescence was collected at 535 nm. All tests were presented as the means of two independent measurements carried out in triplicate. One-way ANOVA with Tukey’s post hoc test was used for statistical analysis: *—p < 0.05; **—p < 0.01; ***—p < 0.001.
Figure 2 Antioxidative activity of selected systems. HCT 116 cells were treated with a combination of H2O2 (4 mM) and N-acetyl-L-cysteine (NAC, 10 mM) or the tested compounds (10 mM). Treatment with H2O2 (4 mM) alone was used as a control for ROS induction. The level of reactive oxygen species (ROS) was measured with the fluorescent dye DCFH-DA using a fluorimeter. The data presented here are the results of three independent measurements carried out in triplicate. A one-way ANOVA with Tukey’s post hoc test was used for statistical analysis, *** p < 0.001; ns—not significant.

[15] = DPPH free radical scavenging assay; conditions: compared to the standard BHT
From the text: as §7
The well-known antioxidant butylated hydroxytoluene (BHT) was used as a standard for comparing activity during testing. The DPPH assay is a standard commonly used test for the in vitro assessment of the antioxidant capacity of novel compounds by using their ability to scavenge the stable radical 1,1-diphenyl-picrylhydrazyl. […] Another test used to evaluate the antioxidative capacity of novel compounds was the ABTS test, by which their activity was evaluated by scavenging the stable radical 3-ethylbenzthiazoline-6-sulphonic acid.
Determination of the reducing activity of the stable radical 1,1-diphenyl-picrylhydrazyl (DPPH):
The reducing activity of the investigated systems was measured by the DPPH method according to previously described procedures with modifications to ensure their use on a 96-well microplate. Briefly, equal volumes of various concentrations of the tested molecules (dissolved in DMSO) were added to a solution of DPPH (final concentration of 50 µM in absolute ethanol). Ethanol and DMSO were used as control solutions in line with earlier reports. The radical scavenging activity was calculated using the following formula:[(A517 control − A517 compound)/A517 control] × 100.
The IC50 values were calculated from dose–response curves using nonlinear regression analysis with the GraphPad Prism 8 Ink. program. All measurements were carried out in triplicate.

COc1ccc(C(=O)Nc2nc3ccccc3[nH]2)c(O)c1 [Compound 7, N-(1H-benzo[d]imidazol-2-yl)-2-hydroxy-4-methoxybenzamide]
MIC S. aureus ATCC 29213 [1]: > 64 µM | IC50 [2]: > 100 µM | IC50 [3]: 36.3 ± 1.8 µM | IC50 [4]: 26.4 ± 4.8 µM | FRAP [5]: 387.28 ± 7.56 | MIC E. coli efflux del. [6]: > 64 µM | Solubility in water [7]: low solubility in water | MIC A. baumannii ATCC 17978 [8]: > 64 µM | MIC P. aeruginosa ATCC 27853 [9]: > 64 µM | Selectivity of antibacterial activity, in words [10]: selective antibacterial activity | MIC E. faecalis ATCC 29212 [10]: 16 µM (≈ 4.53 µg/mL) | MIC E. coli ATCC 25922 [11]: > 64 µM

COc1ccc(C(=O)Nc2nc3cc(C#N)ccc3n2C)c(O)c1 [Compound 12, N-(5-cyano-1-methyl-1H-benzo[d]imidazol-2-yl)-2-hydroxy-4-methoxybenzamide]
MIC S. aureus ATCC 29213 [1]: > 64 µM | IC50 [2]: > 100 µM | IC50 [3]: 3.1 µM | FRAP [5]: 592.86 ± 13.86 | MIC E. coli efflux del. [6]: > 64 µM | Solubility in water [7]: low solubility in water | MIC A. baumannii ATCC 17978 [8]: > 64 µM | MIC P. aeruginosa ATCC 27853 [9]: > 64 µM | Selectivity of antibacterial activity, in words [10]: selective antibacterial activity | MIC E. faecalis ATCC 29212 [10]: 32 µM (≈ 10.3 µg/mL) | MIC E. coli ATCC 25922 [11]: > 64 µM

Cn1c(NC(=O)c2ccccc2O)nc2cc(C#N)ccc21 [Compound 11, N-(5-cyano-1-methyl-1H-benzo[d]imidazol-2-yl)-2-hydroxybenzamide]
MIC S. aureus ATCC 29213 [1]: > 64 µM | IC50 [2]: > 100 µM | IC50 [3]: 1.2 ± 0.3 µM | IC50 [4]: 3.7 ± 0.04 µM | FRAP [5]: 422.55 ± 8.82 | MIC E. coli efflux del. [6]: > 64 µM | IC50 [12]: 5.3 ± 0.6 µM | MIC A. baumannii ATCC 17978 [8]: > 64 µM | MIC P. aeruginosa ATCC 27853 [9]: > 64 µM | Selectivity of antibacterial activity, in words [10]: selective antibacterial activity | MIC E. faecalis ATCC 29212 [10]: 32 µM (≈ 9.35 µg/mL) | IC50 ([13]; Homo sapiens): 1.2 to 5.3 µM | MIC E. coli ATCC 25922 [11]: > 64 µM

Cn1c(NC(=O)c2cc(O)c(O)c(O)c2)nc2cc(C#N)ccc21 [Compound 36, N-(5-cyano-1-methyl-1H-benzo[d]imidazol-2-yl)-3,4,5-trihydroxybenzamide]
melting point: 245 to 251 °C | MIC ([1]; Staphylococcus aureus, ATCC29213, read-out: MIC S. aureus): 32 µM (≈ 10.4 µg/mL) | MIC S. aureus ATCC 29213 [1]: 32 µM (≈ 10.4 µg/mL) | IC50 [2]: 48.3 ± 10.5 µM | IC50 [3]: 4.8 ± 0.7 µM | IC50 [4]: 19.3 ± 6.4 µM | FRAP [5]: 2396.01 ± 35.27 | FRAP ferric reducing/antioxidant power, in words ([5]; compared to the standard BHT): excellent in vitro antioxidant activity | Level of ROS in cells under induced oxidative stress [14]: reducing the level of ROS in the cells | MIC E. coli efflux del. [6]: > 64 µM | IC50 [12]: 25.3 ± 0.7 µM | MIC A. baumannii ATCC 17978 [8]: > 64 µM | MIC P. aeruginosa ATCC 27853 [9]: > 64 µM | MIC E. faecalis ATCC 29212 [10]: 64 µM (≈ 20.8 µg/mL) | MIC E. coli ATCC 25922 [11]: > 64 µM | DPPH free radical scavenging activity, in words [15]: significantly improved

COc1ccc(C(=O)Nc2nc3cc(C#N)ccc3n2CC(C)C)c(O)c1 [Compound 10, N-(5-cyano-1-isobutyl-1H-benzo[d]imidazol-2-yl)-2-hydroxy-4-methoxybenzamide]
MIC S. aureus ATCC 29213 [1]: > 64 µM | IC50 [2]: 4.4 ± 0.4 µM | IC50 [3]: 2.2 ± 0.9 µM | IC50 [4]: 3.9 ± 0.4 µM | FRAP [5]: 123.61 ± 2.52 | Level of ROS in cells under induced oxidative stress [14]: did not effectively scavenge ROS | MIC E. coli efflux del. [6]: > 64 µM | IC50 [12]: 4.4 ± 0.3 µM | MIC A. baumannii ATCC 17978 [8]: > 64 µM | MIC P. aeruginosa ATCC 27853 [9]: > 64 µM | MIC E. faecalis ATCC 29212 [10]: > 64 µM | IC50 ([13]; Homo sapiens): 2.2 to 4.4 µM | IC50 [13]: 1.2 to 5.3 µM | MIC E. coli ATCC 25922 [11]: > 64 µM
